Literature values, collected in paper PMC9851200, “Multiparameter phenotypic screening for endogenous TFEB and TFE3 translocation identifies novel chemical series modulating lysosome function” (Autophagy, 2022).

What was measured:
Design in all cases: method as in original PKIS2 published data
[1] = target: kinases (KINOMEscan panel) (Homo sapiens, UniProt P17948); details: kinase FLT1; Published KINOMEscan; ref original PKIS2 published data; cited from earlier work
[2] = target: T1, kinases (KINOMEscan panel) (Homo sapiens, UniProt P20794); details: Published KINOMEscan; ref original PKIS2 published data; cited from earlier work
T1 sequence (P20794 1-623): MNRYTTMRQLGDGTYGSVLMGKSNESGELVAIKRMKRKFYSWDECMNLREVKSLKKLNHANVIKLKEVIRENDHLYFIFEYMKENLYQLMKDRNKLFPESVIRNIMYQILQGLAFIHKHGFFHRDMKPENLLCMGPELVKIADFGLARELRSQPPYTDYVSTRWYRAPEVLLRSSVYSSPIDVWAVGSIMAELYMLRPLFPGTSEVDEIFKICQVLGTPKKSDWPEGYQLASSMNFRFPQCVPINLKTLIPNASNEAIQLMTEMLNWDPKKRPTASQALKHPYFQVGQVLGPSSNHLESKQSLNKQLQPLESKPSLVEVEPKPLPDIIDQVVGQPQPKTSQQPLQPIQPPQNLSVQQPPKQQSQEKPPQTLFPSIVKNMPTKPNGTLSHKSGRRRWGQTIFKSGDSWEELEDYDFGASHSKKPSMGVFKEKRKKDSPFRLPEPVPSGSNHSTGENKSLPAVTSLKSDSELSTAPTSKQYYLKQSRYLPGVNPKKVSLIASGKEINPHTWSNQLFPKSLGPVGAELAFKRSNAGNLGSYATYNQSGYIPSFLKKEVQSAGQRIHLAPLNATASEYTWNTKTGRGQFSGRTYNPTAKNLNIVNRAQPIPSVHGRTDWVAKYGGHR

[3] = target: kinases (KINOMEscan panel) (Homo sapiens, UniProt P29597); details: Published KINOMEscan, ref original PKIS2 published data, cited from earlier work
[4] = target: kinases (KINOMEscan panel) (Homo sapiens, UniProt Q2M2I8); details: AAK1; Published KINOMEscan; ref original PKIS2 published data; cited from earlier work
[5] = target: T2, kinases (KINOMEscan panel) (Homo sapiens, UniProt P33981); details: Published KINOMEscan; ref original PKIS2 published data; cited from earlier work
T2 sequence (P33981 1-857): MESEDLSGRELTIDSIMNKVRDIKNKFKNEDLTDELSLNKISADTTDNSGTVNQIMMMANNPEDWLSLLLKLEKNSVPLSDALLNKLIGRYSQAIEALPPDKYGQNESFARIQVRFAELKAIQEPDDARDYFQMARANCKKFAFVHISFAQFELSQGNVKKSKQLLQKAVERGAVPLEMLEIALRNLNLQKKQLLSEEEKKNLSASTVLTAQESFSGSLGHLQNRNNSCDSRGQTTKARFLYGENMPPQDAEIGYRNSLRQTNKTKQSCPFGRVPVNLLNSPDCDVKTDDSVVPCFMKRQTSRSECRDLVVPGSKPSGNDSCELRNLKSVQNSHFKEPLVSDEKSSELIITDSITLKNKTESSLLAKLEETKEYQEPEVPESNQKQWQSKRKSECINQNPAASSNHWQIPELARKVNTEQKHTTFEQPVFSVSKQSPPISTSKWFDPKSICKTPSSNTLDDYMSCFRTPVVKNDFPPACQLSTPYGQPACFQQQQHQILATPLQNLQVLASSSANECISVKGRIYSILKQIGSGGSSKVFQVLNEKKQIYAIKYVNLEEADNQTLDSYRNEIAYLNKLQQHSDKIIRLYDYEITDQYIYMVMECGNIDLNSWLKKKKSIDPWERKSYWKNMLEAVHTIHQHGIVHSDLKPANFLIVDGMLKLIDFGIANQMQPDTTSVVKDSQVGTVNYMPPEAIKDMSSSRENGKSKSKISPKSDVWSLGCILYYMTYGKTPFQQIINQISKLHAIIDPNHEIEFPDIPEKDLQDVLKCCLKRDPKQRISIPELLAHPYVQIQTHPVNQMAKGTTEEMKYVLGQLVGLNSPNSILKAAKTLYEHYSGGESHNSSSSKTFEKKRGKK

[6] = target: kinases (KINOMEscan panel) (Homo sapiens, UniProt Q9HC98); details: kinase NEK6; Published KINOMEscan; ref original PKIS2 published data; cited from earlier work
[7] = target: T3, kinases (KINOMEscan panel) (Homo sapiens, UniProt Q6P3R8); details: kinase NEK5; Published KINOMEscan; ref original PKIS2 published data; cited from earlier work
T3 sequence (Q6P3R8 1-708): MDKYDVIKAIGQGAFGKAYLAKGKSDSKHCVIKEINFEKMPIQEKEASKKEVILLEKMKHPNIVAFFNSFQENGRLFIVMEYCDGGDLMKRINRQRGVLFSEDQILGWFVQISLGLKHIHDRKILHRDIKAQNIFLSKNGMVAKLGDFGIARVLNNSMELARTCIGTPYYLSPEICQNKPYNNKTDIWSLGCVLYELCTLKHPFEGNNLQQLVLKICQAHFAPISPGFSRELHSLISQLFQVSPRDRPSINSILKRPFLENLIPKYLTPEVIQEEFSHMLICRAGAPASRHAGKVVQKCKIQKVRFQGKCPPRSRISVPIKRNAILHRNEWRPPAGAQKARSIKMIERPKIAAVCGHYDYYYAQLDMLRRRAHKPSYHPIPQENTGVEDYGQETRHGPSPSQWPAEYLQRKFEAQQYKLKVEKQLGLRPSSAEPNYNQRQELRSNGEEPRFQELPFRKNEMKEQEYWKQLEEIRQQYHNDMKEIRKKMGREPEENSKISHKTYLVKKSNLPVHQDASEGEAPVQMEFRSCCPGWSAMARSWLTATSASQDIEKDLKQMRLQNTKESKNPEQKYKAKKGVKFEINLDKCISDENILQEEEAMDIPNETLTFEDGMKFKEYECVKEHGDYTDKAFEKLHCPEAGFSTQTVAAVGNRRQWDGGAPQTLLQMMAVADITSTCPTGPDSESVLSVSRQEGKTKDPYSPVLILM

Sequence of kinases (KINOMEscan panel) (Homo sapiens, UniProt P29597) (P29597 whole entry): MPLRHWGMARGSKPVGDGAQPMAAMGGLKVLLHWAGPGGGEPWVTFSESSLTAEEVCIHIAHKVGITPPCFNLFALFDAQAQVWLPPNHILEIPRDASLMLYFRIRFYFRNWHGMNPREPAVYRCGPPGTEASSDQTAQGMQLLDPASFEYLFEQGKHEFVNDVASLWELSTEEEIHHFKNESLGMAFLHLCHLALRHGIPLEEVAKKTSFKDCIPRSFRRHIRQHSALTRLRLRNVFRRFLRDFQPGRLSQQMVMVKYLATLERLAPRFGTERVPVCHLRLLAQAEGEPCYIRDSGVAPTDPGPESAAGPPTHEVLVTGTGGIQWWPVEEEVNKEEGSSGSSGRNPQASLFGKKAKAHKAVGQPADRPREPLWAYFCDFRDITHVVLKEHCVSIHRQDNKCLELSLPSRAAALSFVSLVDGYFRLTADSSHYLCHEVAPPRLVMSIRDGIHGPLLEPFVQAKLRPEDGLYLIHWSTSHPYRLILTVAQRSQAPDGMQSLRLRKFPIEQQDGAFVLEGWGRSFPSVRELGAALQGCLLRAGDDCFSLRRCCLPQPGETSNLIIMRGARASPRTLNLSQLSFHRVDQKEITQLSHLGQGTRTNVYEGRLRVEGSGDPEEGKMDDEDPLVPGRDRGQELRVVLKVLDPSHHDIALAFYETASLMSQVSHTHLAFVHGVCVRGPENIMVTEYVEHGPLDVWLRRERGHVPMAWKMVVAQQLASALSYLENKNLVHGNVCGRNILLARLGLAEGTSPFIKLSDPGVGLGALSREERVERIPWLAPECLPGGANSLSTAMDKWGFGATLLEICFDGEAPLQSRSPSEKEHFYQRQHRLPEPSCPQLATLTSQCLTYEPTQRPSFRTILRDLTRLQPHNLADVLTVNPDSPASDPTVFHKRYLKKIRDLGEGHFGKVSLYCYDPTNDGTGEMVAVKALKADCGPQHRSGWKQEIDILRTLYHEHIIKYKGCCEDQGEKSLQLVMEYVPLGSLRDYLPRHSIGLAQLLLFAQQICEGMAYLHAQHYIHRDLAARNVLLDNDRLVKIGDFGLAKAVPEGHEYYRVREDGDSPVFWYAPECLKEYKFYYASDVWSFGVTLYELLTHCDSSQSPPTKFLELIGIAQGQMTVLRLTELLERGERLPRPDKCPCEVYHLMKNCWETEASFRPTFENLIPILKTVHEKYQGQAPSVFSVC
Sequence of kinases (KINOMEscan panel) (Homo sapiens, UniProt P17948) (P17948 27-1338): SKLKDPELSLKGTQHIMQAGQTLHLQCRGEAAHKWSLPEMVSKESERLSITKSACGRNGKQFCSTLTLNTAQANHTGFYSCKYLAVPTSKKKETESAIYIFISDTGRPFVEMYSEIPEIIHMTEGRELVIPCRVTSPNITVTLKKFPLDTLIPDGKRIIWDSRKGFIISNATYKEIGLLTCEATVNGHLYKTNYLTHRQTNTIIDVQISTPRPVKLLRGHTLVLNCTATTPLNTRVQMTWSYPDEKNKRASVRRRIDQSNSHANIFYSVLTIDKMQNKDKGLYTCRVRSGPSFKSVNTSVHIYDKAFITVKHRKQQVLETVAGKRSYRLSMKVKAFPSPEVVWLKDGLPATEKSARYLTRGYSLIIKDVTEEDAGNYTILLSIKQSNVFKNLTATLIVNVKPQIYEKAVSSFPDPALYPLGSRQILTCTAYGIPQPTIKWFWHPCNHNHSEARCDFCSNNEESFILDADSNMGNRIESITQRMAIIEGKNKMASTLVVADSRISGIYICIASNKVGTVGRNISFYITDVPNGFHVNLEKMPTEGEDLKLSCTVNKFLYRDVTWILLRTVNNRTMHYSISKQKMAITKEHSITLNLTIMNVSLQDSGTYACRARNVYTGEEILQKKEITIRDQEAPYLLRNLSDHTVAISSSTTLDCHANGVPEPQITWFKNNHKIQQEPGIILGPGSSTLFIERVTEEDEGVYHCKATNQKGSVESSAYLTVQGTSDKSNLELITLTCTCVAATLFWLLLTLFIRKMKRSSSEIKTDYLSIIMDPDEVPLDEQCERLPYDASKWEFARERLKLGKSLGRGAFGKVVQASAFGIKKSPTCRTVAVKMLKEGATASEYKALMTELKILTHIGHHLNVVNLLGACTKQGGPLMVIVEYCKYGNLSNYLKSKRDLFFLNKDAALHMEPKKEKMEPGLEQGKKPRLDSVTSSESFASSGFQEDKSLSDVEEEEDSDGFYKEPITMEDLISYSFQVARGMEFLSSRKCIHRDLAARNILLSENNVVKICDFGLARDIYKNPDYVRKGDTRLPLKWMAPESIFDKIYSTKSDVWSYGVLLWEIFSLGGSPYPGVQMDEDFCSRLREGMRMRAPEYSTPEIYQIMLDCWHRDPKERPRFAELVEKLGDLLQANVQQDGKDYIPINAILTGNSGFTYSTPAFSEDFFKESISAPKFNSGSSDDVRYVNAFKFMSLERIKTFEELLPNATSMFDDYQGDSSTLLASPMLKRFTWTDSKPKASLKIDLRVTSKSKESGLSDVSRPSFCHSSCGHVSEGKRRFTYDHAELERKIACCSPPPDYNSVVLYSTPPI
Sequence of kinases (KINOMEscan panel) (Homo sapiens, UniProt Q2M2I8) (Q2M2I8 whole entry): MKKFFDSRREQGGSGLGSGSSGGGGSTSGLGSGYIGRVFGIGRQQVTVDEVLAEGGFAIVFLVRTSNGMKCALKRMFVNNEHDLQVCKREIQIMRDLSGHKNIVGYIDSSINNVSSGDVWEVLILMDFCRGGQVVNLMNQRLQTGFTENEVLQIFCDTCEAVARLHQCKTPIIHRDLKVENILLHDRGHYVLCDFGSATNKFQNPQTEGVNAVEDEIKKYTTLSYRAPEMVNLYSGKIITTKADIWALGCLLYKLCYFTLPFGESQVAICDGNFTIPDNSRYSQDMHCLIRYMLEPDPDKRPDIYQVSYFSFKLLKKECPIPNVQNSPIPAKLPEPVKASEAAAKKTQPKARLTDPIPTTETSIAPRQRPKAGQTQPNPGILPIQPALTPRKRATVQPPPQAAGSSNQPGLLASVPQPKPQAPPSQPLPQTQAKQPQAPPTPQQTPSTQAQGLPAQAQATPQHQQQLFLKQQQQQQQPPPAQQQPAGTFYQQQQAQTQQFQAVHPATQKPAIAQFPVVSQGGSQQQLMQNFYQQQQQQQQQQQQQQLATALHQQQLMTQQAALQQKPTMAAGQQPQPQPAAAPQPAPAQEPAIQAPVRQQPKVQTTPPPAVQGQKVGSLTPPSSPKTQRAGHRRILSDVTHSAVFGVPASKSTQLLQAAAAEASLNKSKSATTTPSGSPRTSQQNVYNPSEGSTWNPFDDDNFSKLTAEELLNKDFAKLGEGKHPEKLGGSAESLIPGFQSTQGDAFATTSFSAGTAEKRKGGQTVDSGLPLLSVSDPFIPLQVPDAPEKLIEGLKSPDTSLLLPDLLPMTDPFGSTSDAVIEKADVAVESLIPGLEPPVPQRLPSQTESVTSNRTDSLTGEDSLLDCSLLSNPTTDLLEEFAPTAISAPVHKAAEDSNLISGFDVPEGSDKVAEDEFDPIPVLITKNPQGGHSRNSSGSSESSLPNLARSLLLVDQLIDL
Sequence of kinases (KINOMEscan panel) (Homo sapiens, UniProt Q9HC98) (Q9HC98 whole entry): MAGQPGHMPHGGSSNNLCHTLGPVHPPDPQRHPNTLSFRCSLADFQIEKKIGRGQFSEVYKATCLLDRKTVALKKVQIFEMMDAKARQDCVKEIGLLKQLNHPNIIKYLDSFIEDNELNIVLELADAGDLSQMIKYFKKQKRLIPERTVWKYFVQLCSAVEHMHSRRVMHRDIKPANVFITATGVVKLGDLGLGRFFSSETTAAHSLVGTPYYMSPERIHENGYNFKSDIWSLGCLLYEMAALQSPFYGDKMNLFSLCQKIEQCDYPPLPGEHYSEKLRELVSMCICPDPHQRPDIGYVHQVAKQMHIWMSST

Cc1cccc(-c2nc(Nc3ccncc3)c3ccccc3n2)n1 [NK215]
KINOMEscan FLT1 [1]: 0 | KINOMEscan MAK [2]: 0 | KINOMEscan TYK2(JH2domain-pseudokinase) ([3]; TYK2(JH2domain-pseudokinase)): 40 | KINOMEscan TYK2(JH1domain-catalytic) ([3]; kinase TYK2(JH1domain-catalytic)): 8 | KINOMEscan AAK1 [4]: 2 | KINOMEscan TTK [5]: 10 | KINOMEscan NEK6 [6]: 21 | KINOMEscan NEK5 [7]: 10
